Results published in patent US20240173317A1, “METHODS FOR TREATING PROGRESSIVE FAMILIAL INTRAHEPATIC CHOLESTASIS” (MIRUM PHARMACEUTICALS, INC., priority 2022, published 2024).

How the values were obtained:
subjects with PFIC [1] = test: Total serum bile acid (sBA) level, MARCH-PFIC Phase 3 study; assay type: in vivo, human; conditions: for percentage of sBA response (sBA responders): Week 18 to Week 26
Protocol: Serum bile acids and other cholestasis biomarkers. Blood samples were collected as described in Table 1 to measure levels of cholestasis biomarkers including total sBA, sBA subspecies, C4, FGF-19, and autotaxin as well as liver related parameters. Subjects were encouraged to fast at least 6 hours prior to collection (water intake was permitted if necessary but not recommended). Total sBA and targeted bile acid subspecies were quantified with liquid chromatography mass spectrometry (LC-MS) methodology for exploratory assessments. In addition, screening total sBA will be assessed with an enzymatic assay for inclusion criteria evaluation. C4, a key intermediate in the pathway for bile acid synthesis from cholesterol, will be determined by a validated LC-MS/MS method. The secondary efficacy endpoints are defined as Mean change in total serum bile acid (sBA) level between baseline and average of Weeks 18, 22, and 26 (FIGS. 11-12); 2) Percentage of ItchRO(Obs) responders from Week 15 to Week 26 (FIGS. 13A and 14A); 3) Percentage of sBA responders from Week 18 to Week 26 (FIGS. 13B and 14B). Pruritus responders are defined as a subject having a 4-week average morning ItchRO (Obs) severity change from baseline of […] OR an average severity score of ≤1.0. For the purpose of determining response, the average severity score from the three 4-week periods (weeks 15-18, 19-22 and 23-26) are used. A subject is defined as an ItchRO non-responder if the 4-week average baseline score is missing OR all three 4-week average (post-baseline) scores are missing. sBA responders are defined as a subject having an average sBA level of <102 μmon (applies only if baseline sBA was ≥102 μmon) OR a ≤−75% average percent change from baseline. For the purpose of determining response, the average sBA value from Weeks 18, 22 and 26 values are used. A subject is defined as an sBA non-responder if the baseline sBA value is missing OR sBA values are missing at all 3 time points (i.e., Weeks 18, 22, and 26). p-values comparing maralixibat to placebo treatment groups are calculated using Barnard's exact test.

participants with ALGS [2] = test: TEAEs in participants with ALGS aged 16 years and older; assay type: in vivo, human
Description: The efficacy and safety of MRX in participants with ALGS aged ≥16 years transitioning to adult care and participant aged ≥16 years who initiate MRX treatment were studied (FIG. 30). The median (min, max) duration of therapy for participants who initiated MRX at <16 years of age was 4.1 years (1.5, 5.9), with the oldest patient taking MRX (Table 13). Three participants began MRX at ≥16 years of age and were followed for a median of 3.8 years.

subjects with PFIC [3] = test: Total and direct bilirubin, MARCH-PFIC Phase 3 study
Description: Estimates are from a mixed model for repeated measures (MMRM) with change from baseline as the dependent variable and fixed categorical effects of treatment group, time period and treatment-by-time period interaction as well as the continuous fixed covariates of average baseline score and baseline score-by-time period interaction. […] Average of time periods Weeks 15-18, 19-22, and 2326 obtained from the MMRM as an equally weighted average of the 3 individual visit-specific estimates.
Methods: MARCH enrolled patients with a genetic diagnosis of PFIC, pruritus, and elevated sBA. Patients were randomized to MRX 57011 g/kg BID or placebo (PBO) for 26 weeks. Changes were determined as the difference between MRX and PBO groups for Change from Baseline (CFB) to the average of the final 3 measurements (Weeks 18, 22 and 26) using a mixed-effects model with recurrent measurements. Total/direct bilirubin (TB/DB) categories were defined as normal (≤1.2/0.3 mg/dL) or abnormal (>1.2/0.3 mg/dL).

participants with ALGS [4] = test: sBA in participants with ALGS aged 16 years and older; assay type: in vivo, human
Protocol: All patients received the daily dose appropriate for their weight, with an adult maximum dose of 28.5 mg/d. ^bBefore age 16 years is defined as the last data point prior to turning 16 years of age. After age 16 years is defined as the first data point after turning 16 years of age.
FIGS. 31A and 31B show a change in ltchRO(Obs) (FIG. 31A) and sBA (FIG. 31B) for participants who initiated MRX treatment at <16 years of age (n=11). Of 11 participants, 9 had ItchRO(Obs) scores available for all time points and were included in the analysis. ^bItchRO(Obs) is a 0-4 scale with >1-point reduction considered clinically meaningful. Mean ItchRO(Obs) was rounded to 1 decimal place. Error bars represent SE. Significance was determined using student t test. ^cMean sBA was rounded to the nearest whole number. Error bars represent SE. ^dAverage of last 2 records prior to age 16 years. ^eAverage of first 2 records after age 16 years. ^fAverage of final 2 records.
FIGS. 32A and 32B show a change in ltchRO(Obs) (FIG. 32A) and sBA (FIG. 32B) for participants who Initiated MRX treatment at ≥16 years of age (n=3). ^aItchRO(Obs) is 0-4 scale with ≥1-point reduction considered clinically meaningful. ^bAverage of final two records.
The efficacy and safety of MRX in participants with ALGS aged ≥16 years transitioning to adult care and participant aged ≥16 years who initiate MRX treatment were studied (FIG. 30). […]

[5] = All PFIC cohort, average of Weeks 18, 22, 26, FIG. 11B
[6] = BSEP deficiency cohort, average of Weeks 18, 22, 26, FIG. 11A
[7] = ALGS, aged <16 y at MRX initiation (n = 11), After 16 y
[8] = ALGS, aged <16 y at MRX initiation (n = 11), Before 16 y
[9] = ALGS, aged >16 y at MRX initiation (n = 3)
[10] = BSEP deficiency cohort, FIG. 20A
[11] = BSEP deficiency cohort, FIG. 22A
[12] = MRX group, post-hoc analysis, FIG. 38A-B
[13] = individuals with abnormal Baseline bilirubin, FIG. 37B

For `CCCCC1(CCCC)CS(=O)(=O)c2ccc(N(C)C)cc2[C@@H](c2ccc(OCc3ccc(C[N+]45CCN(CC4)CC5)cc3)cc2)[C@H]1O` [maralixibat, 1-(4-((4-((4R,5R)-3,3-dibutyl-7-(dimethylamino)-4-hydroxy-1,1-dioxido-2,3,4,5-tetrahydrobenzo[b]thiepin-5-yl)phenoxy)methyl)benzyl)-1,4-diazabicyclo[2.2.2]octan-1-ium], the “reduction of sBA levels (mean change from baseline)” value (subjects with PFIC [1]; [5]) was “over 150 μmon”, the “sBA difference from placebo” value (subjects with PFIC [1]; [5]) was 160.403 μmon and the “percentage of sBA response (sBA responders)” value (subjects with PFIC [1]; BSEP deficiency cohort, FIG. 13B) was 35.7%. The “reduction of sBA levels (mean change from baseline)” value (subjects with PFIC [1]; [6]) was about 200 µmol/L, the “sBA difference from placebo” value (subjects with PFIC [1]; [6]) was 186.723 µmol/L and the “improvements in serum bile acid levels” value (subjects with PFIC [1]; FIC1, MDR3, TJP2, MYO5B cohorts, FIG. 34A-B) was “Significant improvements”. For the same molecule, the “reduction of sBA levels (mean change from baseline)” value (subjects with PFIC [1]; FIC1 cohort, FIG. 12A) was about 100 µmol/L, the “sBA difference from placebo” value (subjects with PFIC [1]; FIC1 cohort, FIG. 12A) was 126.382 µmol/L and the “percentage of sBA response (sBA responders)” value (subjects with PFIC [1]; FIG. 14B, sentence prints BSEP deficiency cohort) was 45.5%. For the same molecule, the “reduction of sBA levels (mean change from baseline)” value (subjects with PFIC [1]; MDR3 cohort, FIG. 12B) was 150 μmon, the “sBA difference from placebo” value (subjects with PFIC [1]; MDR3 cohort, FIG. 12B) was 135.089 μmon and the “sBA levels lower at each time point (change from baseline over time)” value (subjects with PFIC [1]; Week 2 to Week 26, BSEP deficiency group, PFIC group, all study participants, FIG. 15A-C) was “more than 100 μmon”. The “improvements in serum bile acid levels” value (subjects with PFIC [1]; full-study population, FIG. 35B) was “statistically significant and clinically meaningful improvements”, the “improvements in serum bile acid levels” value (subjects with PFIC [1]; patients with no-variant found, FIG. 35D) was “demonstrated improvements” and the tolerability (participants with ALGS [2]; ALGS participants aged 16 years and older) was “generally well tolerated”. For the same molecule, the “Any TEAEs, %” value (participants with ALGS [2]; [7]) was “(63.6) %”, the “Gastrointestinal TEAEs: Abdominal pain, %” value (participants with ALGS [2]; [7]) was “(18.2) %” and the “Gastrointestinal TEAEs: Diarrhoea, %” value (participants with ALGS [2]; [7]) was “(9.1) %”. For the same molecule, the “SAEs, %” value (participants with ALGS [2]; [7]) was “(9.1) %”, the “TEAEs > grade 3, %” value (participants with ALGS [2]; [7]) was “(9.1) %” and the “Treatment-related AEs, %” value (participants with ALGS [2]; [7]) was “(18.2) %”. The “Any TEAEs, %” value (participants with ALGS [2]; [8]) was “(100) %”, the “Gastrointestinal TEAEs: Abdominal pain, %” value (participants with ALGS [2]; [8]) was “(45.5) %” and the “Gastrointestinal TEAEs: Diarrhoea, %” value (participants with ALGS [2]; [8]) was “(54.5) %”. The “SAEs, %” value (participants with ALGS [2]; [8]) was “(18.2) %”, the “TEAEs > grade 3, %” value (participants with ALGS [2]; [8]) was “(9.1) %” and the “Treatment-related AEs, %” value (participants with ALGS [2]; [8]) was “(81.8) %”. For the same molecule, the “Any TEAEs, %” value (participants with ALGS [2]; [9]) was “(100) %”, the “Gastrointestinal TEAEs: Diarrhoea, %” value (participants with ALGS [2]; [9]) was “(33.3) %” and the “TEAEs > grade 3, %” value (participants with ALGS [2]; [9]) was “(33.3) %”. For the same molecule, the “Treatment-related AEs ≥ grade 3, %” value (participants with ALGS [2]; [9]) was “(33.3) %”, the “Treatment-related AEs, %” value (participants with ALGS [2]; [9]) was “(66.7) %” and the “CFB in total bilirubin (TB)” value (subjects with PFIC [3]; All-PFIC cohort (MRX n = 33), average of Weeks 18, 22 and 26, FIG. 36A) was -1.1 mg/dL. The “CFB in direct bilirubin (DB)” value (subjects with PFIC [3]; All-PFIC cohort (MRX n = 33), average of Weeks 18, 22 and 26, FIG. 36B) was -0.8 mg/dL, the “TB group difference MRX vs PBO” value (subjects with PFIC [3]; All-PFIC cohort, average of Weeks 18, 22 and 26, FIG. 36A) was 2.0 and the “DB group difference MRX vs PBO” value (subjects with PFIC [3]; All-PFIC cohort, average of Weeks 18, 22 and 26, FIG. 36B) was 1.5. The “difference in total bilirubin improvement vs placebo group” value (subjects with PFIC [3]; [10]) was 1.585 mg/dL, the “improvement in (reduction of) total bilirubin relative to baseline” value (subjects with PFIC [3]; [10]) was “about 1.2 mg/dL” and the “difference in direct bilirubin improvement vs placebo group” value (subjects with PFIC [3]; [11]) was 1.196 mg/dL. For the same molecule, the “improvement in (reduction of) direct bilirubin relative to baseline” value (subjects with PFIC [3]; [11]) was “over 0.8 mg/dL”, the “TB normalized, patients / patients with abnormal Baseline values” (subjects with PFIC [3]; [12]) was 10/25 and the “patients who went from normal to abnormal TB” value (subjects with PFIC [3]; [12]) was 0/7. The “DB frequency of normalization” value (subjects with PFIC [3]; MRX group, post-hoc analysis, normal ≤0.3 mg/dL, FIG. 39) was 38%, the “TB normalized, % of patients with abnormal Baseline values” (subjects with PFIC [3]; MRX group, post-hoc analysis, normal ≤1.2 mg/dL, FIG. 38A-B) was 40% and the “difference in total bilirubin improvement vs placebo group” value (subjects with PFIC [3]; PFIC cohort, FIG. 20B) was 2.000 mg/dL. For the same molecule, the “improvement in (reduction of) total bilirubin relative to baseline” value (subjects with PFIC [3]; PFIC cohort, FIG. 20B) was “about 1.2 mg/dL”, the “difference in direct bilirubin improvement vs placebo group” value (subjects with PFIC [3]; PFIC cohort, FIG. 22B) was 1.608 mg/dL and the “improvement in (reduction of) direct bilirubin relative to baseline” value (subjects with PFIC [3]; PFIC cohort, FIG. 22B) was “about 0.9 mg/dL”. The “total bilirubin lower than baseline over time” value (subjects with PFIC [3]; Week 18 and later points in time, FIG. 21A-B) was “at least 1.0 mg/dL”, the “direct bilirubin lower than baseline over time” value (subjects with PFIC [3]; Week 18 and later points in time, FIG. 23A-B) was “at least 1.0 mg/dL” and the “CFB in direct bilirubin (DB)” value (subjects with PFIC [3]; [13]) was -0.8 mg/dL. The “DB group difference MRX vs PBO” value (subjects with PFIC [3]; [13]) was −1.8, the “improvements in sBA” value (participants with ALGS [4]; MRX during childhood, maintained into early adulthood, FIG. 31B) was “significant improvements” and the “improvements in sBA” value (participants with ALGS [4]; participants receiving MRX in early adulthood, FIG. 32B) was “significant improvements”.
